According to ChEMBL document CHEMBL2440076, “New triarylpyrazoles as broad-spectrum anticancer agents: design, synthesis, and biological evaluation” (Eur J Med Chem, 2013):

What was measured:
OVCAR-5 = experiment: Growth inhibition of human OVCAR5 cells after 48 hrs by sulforhodamine B assay; format: functional; settings: OVCAR-5, 48 h
SNB-19 [1] = experiment: Growth inhibition of human SNB19 cells assessed as cell growth at 10 uM after 48 hrs by sulforhodamine B assay; format: functional; settings: SNB-19, 48 h, read-out: Activity
MDA-MB-468 = experiment: Growth inhibition of human MDA-MB-468 cells after 48 hrs by sulforhodamine B assay; format: functional, cell-based; settings: MDA-MB-468, 48 h
Malme-3M = experiment: Growth inhibition of human MALME-3M cells after 48 hrs by sulforhodamine B assay; format: functional
NCI-H460 = experiment: Growth inhibition of human NCI-H460 cells assessed as cell growth at 10 uM after 48 hrs by sulforhodamine B assay; format: functional; settings: NCI-H460, 48 h, read-out: Activity
[2] = Growth inhibition of human Hs 578T cells after 48 hrs by sulforhodamine B assay; format: functional
NCI-H322M [3] = experiment: Growth inhibition of human NCI-H322M cells after 48 hrs by sulforhodamine B assay; format: functional
MOLT-4 = experiment: Growth inhibition of human MOLT4 cells after 48 hrs by sulforhodamine B assay; format: functional; settings: MOLT-4, 48 h
BT-549 = experiment: Growth inhibition of human BT549 cells assessed as cell growth at 10 uM after 48 hrs by sulforhodamine B assay; format: functional; settings: BT-549, 48 h, read-out: Activity
PC-3 = experiment: Growth inhibition of human PC3 cells after 48 hrs by sulforhodamine B assay; format: functional, cell-based; settings: PC-3, 48 h
HT-29 = experiment: Growth inhibition of human HT-29 cells after 48 hrs by sulforhodamine B assay; format: functional; settings: HT-29, 48 h
IGROV-1 = experiment: Growth inhibition of human IGROV1 cells after 48 hrs by sulforhodamine B assay; format: functional; settings: IGROV-1, 48 h
UACC-62 = experiment: Growth inhibition of human UACC62 cells assessed as cell growth at 10 uM after 48 hrs by sulforhodamine B assay; format: functional; settings: UACC-62, 48 h, read-out: Activity
A549 [4] = experiment: Growth inhibition of human A549/ATCC cells after 48 hrs by sulforhodamine B assay; format: functional; settings: A549, 48 h
NCI-H322M [5] = experiment: Growth inhibition of human NCI-H322M cells assessed as cell growth at 10 uM after 48 hrs by sulforhodamine B assay; format: functional; settings: read-out: Activity
RXF 393 [6] = experiment: Growth inhibition of human RXF393 cells assessed as cell growth at 10 uM after 48 hrs by sulforhodamine B assay; format: functional; settings: RXF 393, 48 h, read-out: Activity
SF-539 = experiment: Growth inhibition of human SF539 cells assessed as cell growth at 10 uM after 48 hrs by sulforhodamine B assay; format: functional; settings: SF-539, 48 h, read-out: Activity
[7] = Growth inhibition of human Hs 578T cells assessed as cell growth at 10 uM after 48 hrs by sulforhodamine B assay; format: functional; settings: read-out: Activity
HL-60(TB) = experiment: Growth inhibition of human HL-60(TB) cells assessed as cell growth at 10 uM after 48 hrs by sulforhodamine B assay; format: functional; settings: HL-60, 48 h, read-out: Activity
SNB-19 [8] = experiment: Growth inhibition of human SNB19 cells after 48 hrs by sulforhodamine B assay; format: functional; settings: SNB-19, 48 h
SN12C = experiment: Growth inhibition of human SN12C cells assessed as cell growth at 10 uM after 48 hrs by sulforhodamine B assay; format: functional; settings: read-out: Activity
RXF 393 [9] = experiment: Growth inhibition of human RXF393 cells after 48 hrs by sulforhodamine B assay; format: functional; settings: RXF 393, 48 h
LOX IMVI = experiment: Growth inhibition of human LOXIMVI cells assessed as cell growth at 10 uM after 48 hrs by sulforhodamine B assay; format: functional; settings: read-out: Activity
MDA-MB-231 = experiment: Growth inhibition of human MDA-MB-231 cells after 48 hrs by sulforhodamine B assay; format: functional; settings: MDA-MB-231, 48 h
SF-268 = experiment: Growth inhibition of human SF268 cells assessed as cell growth at 10 uM after 48 hrs by sulforhodamine B assay; format: functional; settings: SF-268, 48 h, read-out: Activity
786-0 = experiment: Growth inhibition of human 786-0 cells assessed as cell growth at 10 uM after 48 hrs by sulforhodamine B assay; format: functional; settings: 786-0, 48 h, read-out: Activity
SK-MEL-5 = experiment: Growth inhibition of human SK-MEL-5 cells assessed as cell growth at 10 uM after 48 hrs by sulforhodamine B assay; format: functional; settings: SK-MEL-5, 48 h, read-out: Activity
A549 [10] = experiment: Growth inhibition of human A549/ATCC cells assessed as cell growth at 10 uM after 48 hrs by sulforhodamine B assay; format: functional; settings: A549, 48 h, read-out: Activity
MDA-MB-435 = experiment: Growth inhibition of human MDA-MB-435 cells assessed as cell growth at 10 uM after 48 hrs by sulforhodamine B assay; format: functional; settings: MDA-MB-435, 48 h, read-out: Activity
TK-10 = experiment: Growth inhibition of human TK10 cells assessed as cell growth at 10 uM after 48 hrs by sulforhodamine B assay; format: functional; settings: TK-10, 48 h, read-out: Activity
NCI-H23 = experiment: Growth inhibition of human NCI-H23 cells after 48 hrs by sulforhodamine B assay; format: functional; settings: NCI-H23, 48 h
HCT-116 = experiment: Growth inhibition of human HCT116 cells after 48 hrs by sulforhodamine B assay; format: functional; settings: HCT-116, 48 h
SF-295 = experiment: Growth inhibition of human SF295 cells after 48 hrs by sulforhodamine B assay; format: functional, cell-based; settings: SF-295, 48 h
U-251 = experiment: Growth inhibition of human U251 cells after 48 hrs by sulforhodamine B assay; format: functional; settings: U-251, 48 h
[11] = read-out: LC50 (the source's name)

COc1cc(-c2nn(-c3cccc(NC(=O)Nc4cc(C(F)(F)F)cc(C(F)(F)F)c4)c3)cc2-c2ccncc2)ccc1Cl
GI50 (OVCAR-5): 937 nM | LC50 (concentration killing 50% of cells) (OVCAR-5): 12000 nM | TGI (OVCAR-5): 2470 nM | growth at 10 µM (SNB-19 [1]): 6.55% | GI50 (MDA-MB-468): 307 nM | IC50 (MDA-MB-468): 310 nM | TGI (MDA-MB-468): 1540 nM | CC50 (MDA-MB-468; [11]): 24300 nM | GI50 (Malme-3M): 892 nM | LC50 (concentration killing 50% of starting cells) (Malme-3M): 7680 nM | TGI (Malme-3M): 2170 nM | growth at 10 µM (NCI-H460): -49.7% | GI50 [2]: 1040 nM | TGI [2]: 3680 nM | CC50 [2, 11]: > 50000 nM | GI50 (NCI-H322M [3]): 1020 nM | TGI (NCI-H322M [3]): 3000 nM | CC50 (NCI-H322M [3]; [11]): 29900 nM | GI50 (MOLT-4): 1080 nM | TGI (MOLT-4): 4480 nM | CC50 (MOLT-4; [11]): > 50000 nM | growth at 10 µM (BT-549): -8.96% | GI50 (PC-3): 250 nM | IC50 (PC-3): 250 nM | TGI (PC-3): 2070 nM | CC50 (PC-3; [11]): > 50000 nM | GI50 (HT-29): 702 nM | TGI (HT-29): 1610 nM | CC50 (HT-29; [11]): 3710 nM | GI50 (IGROV-1): 826 nM | LC50 (concentration killing 50% of cells) (IGROV-1): 23700 nM | TGI (IGROV-1): 2190 nM | growth at 10 µM (UACC-62): -55.9% | GI50 (A549 [4]): 527 nM | LC50 (concentration killing 50% of starting cells) (A549 [4]): 18000 nM | TGI (A549 [4]): 2130 nM | growth at 10 µM (NCI-H322M [5]): 26.1% | growth at 10 µM (RXF 393 [6]): -68.1% | growth at 10 µM (SF-539): -53.5% | growth at 10 µM [7]: -25.8% | growth at 10 µM (HL-60(TB)): -20.2% | GI50 (SNB-19 [8]): 711 nM | LC50 (concentration killing 50% of cells) (SNB-19 [8]): > 50000 nM | TGI (SNB-19 [8]): 3670 nM | growth at 10 µM (SN12C): -8.08% | GI50 (RXF 393 [9]): 869 nM | LC50 (concentration killing 50% of cells) (RXF 393 [9]): 4900 nM | TGI (RXF 393 [9]): 2060 nM | growth at 10 µM (LOX IMVI): -91.3% | GI50 (MDA-MB-231): 664 nM | LC50 (MDA-MB-231): 3000 nM | TGI (MDA-MB-231): 1410 nM | growth at 10 µM (SF-268): -46.3% | growth at 10 µM (786-0): -71.1% | growth at 10 µM (SK-MEL-5): -96.1% | growth at 10 µM (A549 [10]): -23.8% | growth at 10 µM (MDA-MB-435): -58.3% | growth at 10 µM (TK-10): -26.7% | GI50 (NCI-H23): 1090 nM | LC50 (NCI-H23): 29600 nM | TGI (NCI-H23): 3340 nM | GI50 (HCT-116): 643 nM | TGI (HCT-116): 1760 nM | CC50 (HCT-116; [11]): 4830 nM | GI50 (SF-295): 399 nM | IC50 (SF-295): 400 nM | TGI (SF-295): 1230 nM | CC50 (SF-295; [11]): 3310 nM | GI50 (U-251): 590 nM | LC50 (concentration killing 50% of cells) (U-251): 3180 nM | TGI (U-251): 1370 nM
